≈ marks a conversion by molar mass, not a printed value.
How the values were obtained:
Assay type in all cases: functional, organism-based
[1] = tested on: Plasmodium falciparum; assay: Antimalarial activity against Plasmodium falciparum D6
[2] = tested on: Plasmodium falciparum; assay: Antimalarial activity against Plasmodium falciparum W2
[3] = tested on: Plasmodium falciparum; assay: Antimalarial activity against Plasmodium falciparum NF54 after 48 hrs by spectrophotometric analysis; conditions: NF54, 48 h
[4] = tested on: Plasmodium falciparum; assay: Antimalarial activity against Plasmodium falciparum HB3
[5] = tested on: Plasmodium falciparum; assay: Antimalarial activity against Plasmodium falciparum K1
[6] = tested on: Plasmodium falciparum; assay: Antimalarial activity against Plasmodium falciparum W2 after 24 hrs by in presence of [3H]hypoxanthine
[7] = tested on: Plasmodium falciparum; assay: Antimalarial activity against Plasmodium falciparum D6 after 24 hrs by in presence of [3H]hypoxanthine
[8] = tested on: Plasmodium falciparum; assay: Antimalarial activity against Plasmodium falciparum K1 by [3H]-hypoxanthine incorporation assay
[9] = tested on: Plasmodium falciparum; assay: Antimalarial activity against blood stages of chloroquine-resistant Plasmodium falciparum K1

C[C@H]1[C@@H](CCO)O[C@@H]2O[C@]3(C)CC[C@H]4[C@H](C)CC[C@@H]1[C@@]24OO3
IC50 [1]: 0.34 ng/mL (≈ 1.09 nM)
IC50 [2]: 0.18 ng/mL (≈ 0.576 nM)

CCC[C@H]1O[C@@H]2O[C@]3(C)CC[C@H]4[C@H](C)CC[C@@H]([C@H]1C)[C@@]24OO3
IC50 [1]: 0.41 ng/mL (≈ 1.32 nM)
IC50 [2]: 0.16 ng/mL (≈ 0.515 nM)

C[C@@H]1CC[C@@H]2[C@]34OO[C@@](C)(CC[C@@H]13)O[C@H]4OC(O/C=C/c1ccccc1)[C@]2(C)O (stereo partly drawn)
IC50 [3]: 106 nM

C[C@H]1[C@@H](OCc2ccc(CN3CCCCC3)cc2)O[C@@H]2O[C@]3(C)CC[C@H]4[C@H](C)CC[C@@H]1[C@@]24OO3
IC50 [4]: 12.2 nM
IC50 [5]: 9.8 nM

C[C@@H]1CC[C@@H]2[C@]34OO[C@@](C)(CC[C@@H]13)O[C@H]4OC(OCC1CC1)[C@]2(C)O (stereo partly drawn)
IC50 [3]: 158 nM

C[C@H]1[C@@H](O[C@@H](C)CC(=O)O)O[C@@H]2O[C@]3(C)CC[C@H]4[C@H](C)CC[C@@H]1[C@@]24OO3
IC50 [6]: 7.43 ng/mL
IC50 [7]: 15 ng/mL

C[C@H]1[C@@H](OCc2ccc(CO)cc2)O[C@@H]2O[C@]3(C)CC[C@H]4[C@H](C)CC[C@@H]1[C@@]24OO3
IC50 [4]: 4.2 nM
IC50 [5]: 4.4 nM

COC(=O)CC[C@@H](OC1O[C@@H]2O[C@]3(C)CC[C@H]4[C@H](C)CC[C@@H]([C@H]1C)[C@@]24OO3)c1ccc(F)cc1 (stereo partly drawn)
IC50 [1]: 0.43 ng/mL (≈ 0.9 nM)
IC50 [2]: 0.398 ng/mL (≈ 0.832 nM)

CCNCCO[C@H]1O[C@@H]2O[C@]3(C)CC[C@H]4[C@H](C)CC[C@@H]([C@H]1C)[C@@]24OO3
IC50 [4]: 4.1 nM
IC50 [5]: 4.1 nM

CC1CCC2C(CCCCCCC[C@]3(C[C@@H]4C(=O)O[C@@H]5O[C@]6(C)CC[C@H]7[C@H](C)CC[C@@H]4[C@@]57OO6)C(=O)O[C@@H]4O[C@]5(C)CC[C@H]6[C@H](C)CC[C@@H]3[C@@]46OO5)C(O)OC3OC4(C)CCC1C32OO4 (stereo partly drawn)
EC50 [8]: 3.1 nM

CO[C@H]1O[C@@H]2C[C@]3(C)CC[C@H]4[C@H](C)CC[C@@H]([C@H]1C)[C@@]24OO3
IC50 [9]: 0.301 ng/mL (≈ 1.01 nM)

COC(=O)[C@@H](C)CO[C@H]1O[C@@H]2O[C@]3(C)CC[C@H]4[C@H](C)CC[C@@H]([C@H]1C)[C@@]24OO3
IC50 [6]: 0.015 ng/mL
IC50 [7]: 0.36 ng/mL

COC(=O)C[C@H](C)O[C@H]1O[C@@H]2O[C@]3(C)CC[C@H]4[C@H](C)CC[C@@H]([C@H]1C)[C@@]24OO3
IC50 [6]: 0.48 ng/mL
IC50 [7]: 1.19 ng/mL

C[C@@H]1CC[C@H]2[C@](C)(Br)[C@@H](Nc3ccccc3)O[C@@H]3O[C@]4(C)CC[C@@H]1[C@]32OO4
IC50 [1]: 3.42 ng/mL (≈ 7.8 nM)
IC50 [2]: 0.63 ng/mL (≈ 1.44 nM)

CNCCO[C@H]1O[C@@H]2O[C@]3(C)CC[C@H]4[C@H](C)CC[C@@H]([C@H]1C)[C@@]24OO3
IC50 [4]: 27 nM
IC50 [5]: 24 nM

C[C@@H]1CC[C@H]2[C@@H](C)C(CCCO)O[C@@H]3O[C@]4(C)CC[C@@H]1[C@]32OO4 (stereo partly drawn)
IC50 [1]: 0.23 ng/mL (≈ 0.705 nM)
IC50 [2]: 0.23 ng/mL (≈ 0.705 nM)

C[C@H]1[C@@H](OCc2ccc(CN)cc2)O[C@@H]2O[C@]3(C)CC[C@H]4[C@H](C)CC[C@@H]1[C@@]24OO3
IC50 [4]: 3.1 nM
IC50 [5]: 1.4 nM

C[C@@H]1CC[C@H]2[C@](C)(Br)[C@@H](Nc3ncccn3)O[C@@H]3O[C@]4(C)CC[C@@H]1[C@]32OO4
IC50 [1]: 26 ng/mL (≈ 59 nM)
IC50 [2]: 5.56 ng/mL (≈ 12.6 nM)

C[C@H]1[C@@H](OCc2ccc(CN3CCOCC3)cc2)O[C@@H]2O[C@]3(C)CC[C@H]4[C@H](C)CC[C@@H]1[C@@]24OO3
IC50 [4]: 50 nM
IC50 [5]: 35 nM

C[C@H]1[C@@H](OC2O[C@H](CO)[C@H](O)[C@H](O)[C@H]2O)O[C@@H]2O[C@]3(C)CC[C@H]4[C@H](C)CC[C@@H]1[C@@]24OO3 (stereo partly drawn)
IC50 [6]: 35.6 ng/mL
IC50 [7]: 13.1 ng/mL

COC(=O)CC[C@H](OC1O[C@@H]2O[C@]3(C)CC[C@H]4[C@H](C)CC[C@@H]([C@H]1C)[C@@]24OO3)c1ccc(F)cc1 (stereo partly drawn)
IC50 [1]: 0.616 ng/mL (≈ 1.29 nM)
IC50 [2]: 0.488 ng/mL (≈ 1.02 nM)

C[C@H]1[C@@H](OCCN2CCCC2)O[C@@H]2O[C@]3(C)CC[C@H]4[C@H](C)CC[C@@H]1[C@@]24OO3
IC50 [4]: 23 nM
IC50 [5]: 23 nM

C[C@H]1[C@@H](OC[C@@H](C)C(=O)O)O[C@@H]2O[C@]3(C)CC[C@H]4[C@H](C)CC[C@@H]1[C@@]24OO3
IC50 [6]: 5.34 ng/mL
IC50 [7]: 22.2 ng/mL

C[C@@H]1CC[C@H]2[C@@H](C)C(OC(=O)c3cccc([N+](=O)[O-])c3)O[C@@H]3O[C@]4(C)CC[C@@H]1[C@]32OO4 (stereo partly drawn)
IC50 [3]: 10.6 nM

— ChEMBL document CHEMBL4616581, “Current scenario of artemisinin and its analogues for antimalarial activity” (Eur J Med Chem, 2019)
